The record followed here is patent US8541240B2, “Colorimetric and fluorimetric fluoride sensing” (Florida State University Research Foundation, Inc., priority 2010, dated 2013).

Data set [1] can be described thus: Isothermal titration calorimetry (ITC), F^− recognition. Format: binding. The settings on record: for K1 (association constant) / ΔG1 / K2 (association constant, second binding process) / ΔG2: X^− = F^−, DMSO, 298 K. As for the experimental part: (§1) Isothermal titration calorimetry (ITC) studies were conducted on a MICROCAL VP-ITC ultra-sensitive isothermal titration microcalorimeter. The VP-ITC unit, with a precise temperature control set at 25.0±0.1° C., directly measured heat evolved or absorbed in solution as a result of […] of reactant. For control, a reference cell was filled with dimethyl sulfoxide (DMSO). Titrations were run at 25° C.
(§2) Before the experiment, all the samples were degassed at 25° C. for 10 minutes us the THERMOVAC (a vacuum thermostating system). Each of 40 injections of 6 μL of a halide solution was delivered into a solution (1 mM) of reagent LS over 12 seconds by a syringe spinning at 270 rpm, with a 240 second equilibration time between injections. The instrument was controlled by MICROCAL OBSERVER software comprising a 16-bit A/D converter board for data acquisition, and a second interface board for calorimetric control. Heats of dilution were taken into account using data from control experiments, in which DMSO was injected into reagent LS in DMSO solution.
From these experiments, it has been confirmed that a 1:[…] (reagent LS:F^− anion) type of stoichiometry occurs during F^− titration. Initially, π-anion-π interaction takes place, at concentrations up to one molar equivalent of F^− ion. At concentrations greater than one equivalent of F^−, the NH proton becomes directly involved in a second binding process through hydrogen bonding, a conclusion which is supported by the ^1H NMR experiments described above. The association constants for these two processes have been determined as follows: K1=4.11 10^4 M^−1 and K2=2.69 10^4 M^−1. […]

Data set [2] in a line: Isothermal titration calorimetry (ITC), Cl^− recognition. The settings on record: for K1 (association constant) / ΔG1: X^− = Cl^−, ITC, DMSO, 298 K. It counts as binding. As for the experimental part:
as §1, §2
(§3) Using these characteristic ITC patterns, one could determine whether a given test solution contains F^− only or, alternatively, whether the test solution contains is a mixture of F^− with another halide anion.
In addition to the above species, the same experimental procedure was followed with control reagent CR.

Data set [3] in a line: Visual color change and UV/Visible spectroscopy during F^− titration. The following applies: for visible color change during F^− titration: solvents with up to 15% H2O, orange ≦5 equiv, pink >5 equiv F^−. An excerpt:
(§4) Unless otherwise indicated, the following procedure was used for all examples involving titration experiments. Generally, titrant solutions comprising the fluoride receptor reagents (e.g., reagents N1, SR, and LR) were maintained at a concentration of 10 μm. Titrand solutions containing fluoride anion were 30 times more concentrated (e.g., 300 μm) to minimize dilution effects during titration. Unless otherwise indicated, the solvent for all solutions was dimethyl sulfoxide (DMSO).
(§5) Several experiments were conducted to observe the visible color changes that occur when NDI-based receptor reagents N1, SR, and LR were titrated with solutions containing F^− ions. Titrations were carried out using F^− in a number of solvents, including aqueous dimethyl sulfoxide (DMSO), dimethylformamide (DMF), dimethylacetamide (DMAc), acetonitrile, acetone, and tetrahydrofuran, with each solution containing up to 15% of H2O. Otherwise, the titrations followed the standard titration procedure outlined above.
(§6) As indicated above, UV/Visible light (UV/Vis) spectra were recorded on a PerkinElmer Lambda-25 UV/Vis spectrophotometer. For each experiment, receptor N1, SR, and CR concentrations were maintained at 10 μM. Titration of the F^− ion was conducted using the standard titration procedure outlined above.

A short description of data set [4]: Visual color change and UV/Visible spectroscopy during titration with other anions.
Text: as §4, §5, §6
Similarly, FIG. 5, panel (c) is a representation of the data obtained when receptor reagent N1 was titrated with various other […], including Cl^−, Br^−, I^−, NO3^−, acetate anion (AcO^−), and H2PO4^−.

Data set [5] in a line: Isothermal titration calorimetry (ITC), Br^− recognition. It counts as binding. The following applies: solution with DMSO. As for the experimental part:
as §1, §2, §3

The nature of data set [6]: Isothermal titration calorimetry (ITC), I^− recognition. Format: binding. The settings on record: solution with DMSO. Here is the method:
as §1, §2, §3

A short description of data set [7]: Fluorescence spectroscopy during F^− titration. The settings on record: for selectivity for F^− over other halide ions: color and emission spectra, Cl^−, Br^−, I^− up to 30 molar equivalents, DMSO.
Text: as §4
Fluorescence spectroscopy was introduced to determine the sensitivity of NDI-based F^− ion sensors at very low concentrations. Fluorescence spectra were collected on a HORIBA JOBIN YVON FLUOROMAX-4 spectrofluorometer.

Data set [8] in a line: Fluoride anion sensing in toothpastes (UV/Vis). The settings on record: 10 μM receptor, wet DMSO. As for the experimental part: For the detection of F^− ion in toothpastes, small samples (1 gram) of each of two toothpastes (COLGATE anticavity fluoride toothpaste and ORAJEL toddler fluoride-free toothpaste) were extracted separately in 2 mL of aqueous DMSO. The COLGATE toothpaste contained 0.24% (w/v) NaF. Each resulting suspension was filtered to obtain colorless clear solution, which were separately added to 10 μM SR solutions.
The black trace represents SR without toothpaste; the light trace, SR with anticavity adult toothpaste containing 0.24% NaF; and the medium trace, SR with F^− free toddler toothpaste.

The next data set in a line: Cyclic voltammetry. Format: physicochemical. The following applies: 1 mM in 0.1 M TBAPF6/DMF, Ag/AgCl reference, 100 mV/s, room temperature. As for the experimental part:
Cyclic voltammetry (CV) was conducted on a PRINCETON APPLIED RESEARCH (PAR) VERSASTAT-3-200 potentiostat/galvanostat instrument using a standard electrochemical cell, consisting of a Pt-disk working electrode, Pt-wire counter electrode, and Ag/AgCl (3 N aq. NaCl) reference electrode. CV was recorded at 1 mM of reagent N1 in 0.1 M TBAPF6/DMF supporting electrolyte solution at room temperature at 100 mV/s scan rate (FIG. 11).

As to `O=C(Nc1cccc(NC(=O)c2cccc(C(=O)Nc3cccc(NC(=O)c4ccncc4)c3)c2)c1)c1ccncc1` [CR, reference compound], in data set [1], the “K1 (association constant)” value came out at 259 M⁻¹ and the ΔG1 is -3.28 kcal/M. For the same compound, in data set [2], the “K1 (association constant)” value was 100 M⁻¹ and the ΔG1 is -2.71 kcal/M. For the same compound, the “UV/Vis spectroscopic / colorimetric response to F^− titration” value in data set [3] (receptor 10 μM, DMSO) is listed as “virtually no colorimetric response”. In addition, in data set [4] (any anion), the “visible color change in response to anions” value is reported as “did not change color in response to any anion”.

Take `O=C(Nc1cccc(NC(=O)c2cccc(C(=O)Nc3cccc(NC(=O)c4ccc(N5C(=O)c6ccc7c8c(ccc(c68)C5=O)C(=O)N(c5ccncc5)C7=O)cc4)c3)c2)c1)c1ccc(N2C(=O)c3ccc4c5c(ccc(c35)C2=O)C(=O)N(c2ccncc2)C4=O)cc1` [LR]: in data set [1], the “K1 (association constant)” value was 41100 M⁻¹; the “K2 (association constant, second binding process)” value was found to be 26900 M⁻¹; the ΔG1 is -6.29 kcal/M; the ΔG2 is -6.04 kcal/M. In addition, in data set [1] (excess of Cl^−), the “F^− binding in presence of excess Cl^− ion” value is given as “binds F^− selectively”. This compound showed an association constant Ka in [2] (Cl^−, solution with DMSO) of 319 M⁻¹. In data set [2], the “K1 (association constant)” value worked out at 319 M⁻¹ and the ΔG1 was -3.42 kcal/M. Also, in data set [5], the association constant Ka was found to be 145 M⁻¹. In data set [6], this compound displayed an association constant Ka of 105 M⁻¹. For the same compound, in data set [7], the “selectivity for F^− over other halide ions” value is reported as “excellent selectivity”. For the same compound, the “visible color change during F^− titration” value in data set [3] was “immediately changed color in a distinct two-step pattern”.

In the case of `O=C(Nc1cccc(N2C(=O)c3ccc4c5c(ccc(c35)C2=O)C(=O)N(c2ccncc2)C4=O)c1)c1cccc(C(=O)Nc2cccc(N3C(=O)c4ccc5c6c(ccc(c46)C3=O)C(=O)N(c3ccncc3)C5=O)c2)n1` [SR], in data set [1], the “K1 (association constant)” value stood at 9.03e+08 M⁻¹; the “K2 (association constant, second binding process)” value stood at 442000 M⁻¹; the ΔG1 is -12.20 kcal/M; the ΔG2 was -7.70 kcal/M. In addition, in data set [2], the “K1 (association constant)” value is 1730 M⁻¹ and the ΔG1 is -4.41 kcal/M. For the same compound, in [7], the “selectivity for F^− over other halide ions” value is “excellent selectivity”. Moreover, the “amplification of a new peak at 465 nm” value in data set [7] (receptor 1 nM in DMSO, F^− 30 nM, 381 nm excitation) came out at 20 fold. For the same compound, the “visible color change during F^− titration” value in data set [3] is recorded as “immediately changed color in a distinct two-step pattern”. In addition, the “color change with F^− in the presence of Cl^−” value in data set [3] (titrated with F^− in the presence of 30 molar equivalents of Cl^−) is reported as “showed the characteristic two-step color change associated with F^− even in the presence of Cl^−”. For the same compound, the “optical response to Cl^− alone” value in data set [4] (Cl^−, 30 molar equivalents) was “no optical response”. In addition, in data set [8], the “response to F^− containing toothpaste solution (COLGATE, 0.24% NaF)” value is “turned light orange” and the “response to F^−-free ORAJEL toothpaste” value is reported as “did not change the spectrum of the receptor”.

`O=C1c2ccc3c4c(ccc(c24)C(=O)N1c1ccncc1)C(=O)N(c1ccncc1)C3=O` [N1]: in data set [1], the “K1 (association constant)” value is 8470 M⁻¹ and the ΔG1 was -5.36 kcal/M. In data set [2], the “K1 (association constant)” value was 53 M⁻¹ and the ΔG1 is -2.35 kcal/M. For the same compound, the “increase of the 465 nm emission peak” value in data set [7] (receptor 10 μM in DMSO, 30 equiv. of F^−) was 5.5 fold. In addition, the “visible color change during F^− titration” value in data set [3] is “immediately changed color in a distinct two-step pattern”. The “optical response to other anions” value in data set [4] (Cl^−, Br^−, I^−, NO3^−, AcO^−, H2PO4^−, UV/Vis) was “did not show any optical response”. Moreover, in “Cyclic voltammetry”, the “E1 ½, one-electron reduction to radical anion” value is reported as −342 mV and the “E2 ½, reduction to dianion” value was −804 mV.
